The target of assay [1] is Mitogen-activated protein kinase kinase kinase 11 (Homo sapiens) (UniProt Q16584). Briefly: Inhibition of MLK3 Lys2 labeling site in human Huh-7 cells at 1 uM by KiNativ Profiling analysis relative to control. The format is cell-based.
Assay [2] concerns the target T1, Serine/threonine-protein kinase 3 (Homo sapiens) (UniProt Q13188).
T1 sequence (whole entry): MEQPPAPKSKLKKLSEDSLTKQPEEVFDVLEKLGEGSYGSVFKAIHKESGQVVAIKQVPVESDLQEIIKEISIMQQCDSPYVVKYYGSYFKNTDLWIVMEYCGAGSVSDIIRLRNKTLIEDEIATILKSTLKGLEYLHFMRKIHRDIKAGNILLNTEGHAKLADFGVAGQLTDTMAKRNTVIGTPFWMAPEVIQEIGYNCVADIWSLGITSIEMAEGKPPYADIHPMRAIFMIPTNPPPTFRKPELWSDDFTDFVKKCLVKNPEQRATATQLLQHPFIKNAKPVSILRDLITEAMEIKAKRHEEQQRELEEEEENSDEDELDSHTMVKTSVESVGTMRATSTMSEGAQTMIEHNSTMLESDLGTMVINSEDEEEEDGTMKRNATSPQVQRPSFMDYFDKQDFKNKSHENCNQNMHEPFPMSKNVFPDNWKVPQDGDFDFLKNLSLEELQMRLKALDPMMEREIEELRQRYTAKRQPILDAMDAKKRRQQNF
As to the kind of experiment: Inhibition of MST2 Lys1 labeling site in human Huh-7 cells at 1 uM by KiNativ Profiling analysis relative to control. The format is cell-based.

Assay [3] addresses Serine/threonine-protein kinase 26 (Homo sapiens) (UniProt Q9P289). As to the kind of experiment: Inhibition of MST4 Lys1 labeling site in human Huh-7 cells at 1 uM by KiNativ Profiling analysis relative to control. It is filed as cell-based.
Assay [4] deals with Serine/threonine-protein kinase PLK1 (Homo sapiens) (UniProt P53350). As to the kind of experiment: Inhibition of PLK1 Lys2 labeling site harbouring VIHRDLKLGNLFLNEDLEVK in human Huh-7 cell lysate at 1 uM by KiNativ Profiling analysis relative to control. It is filed as subcellular.
Assay [5] has as its target Receptor-interacting serine/threonine-protein kinase 1 (Homo sapiens) (UniProt Q13546). As to the kind of experiment: Inhibition of RIPK1 (unknown origin) at 1 uM by Ambit Kinomescan binding assay relative to control.
For assay [6], the target named is STE20-like serine/threonine-protein kinase (Homo sapiens) (UniProt Q9H2G2). As to the kind of experiment: Inhibition of SLK (unknown origin) at 1 uM by Ambit Kinomescan binding assay relative to control.
Chain of STE20-like serine/threonine-protein kinase (Homo sapiens) (Q9H2G2 whole entry, looked up): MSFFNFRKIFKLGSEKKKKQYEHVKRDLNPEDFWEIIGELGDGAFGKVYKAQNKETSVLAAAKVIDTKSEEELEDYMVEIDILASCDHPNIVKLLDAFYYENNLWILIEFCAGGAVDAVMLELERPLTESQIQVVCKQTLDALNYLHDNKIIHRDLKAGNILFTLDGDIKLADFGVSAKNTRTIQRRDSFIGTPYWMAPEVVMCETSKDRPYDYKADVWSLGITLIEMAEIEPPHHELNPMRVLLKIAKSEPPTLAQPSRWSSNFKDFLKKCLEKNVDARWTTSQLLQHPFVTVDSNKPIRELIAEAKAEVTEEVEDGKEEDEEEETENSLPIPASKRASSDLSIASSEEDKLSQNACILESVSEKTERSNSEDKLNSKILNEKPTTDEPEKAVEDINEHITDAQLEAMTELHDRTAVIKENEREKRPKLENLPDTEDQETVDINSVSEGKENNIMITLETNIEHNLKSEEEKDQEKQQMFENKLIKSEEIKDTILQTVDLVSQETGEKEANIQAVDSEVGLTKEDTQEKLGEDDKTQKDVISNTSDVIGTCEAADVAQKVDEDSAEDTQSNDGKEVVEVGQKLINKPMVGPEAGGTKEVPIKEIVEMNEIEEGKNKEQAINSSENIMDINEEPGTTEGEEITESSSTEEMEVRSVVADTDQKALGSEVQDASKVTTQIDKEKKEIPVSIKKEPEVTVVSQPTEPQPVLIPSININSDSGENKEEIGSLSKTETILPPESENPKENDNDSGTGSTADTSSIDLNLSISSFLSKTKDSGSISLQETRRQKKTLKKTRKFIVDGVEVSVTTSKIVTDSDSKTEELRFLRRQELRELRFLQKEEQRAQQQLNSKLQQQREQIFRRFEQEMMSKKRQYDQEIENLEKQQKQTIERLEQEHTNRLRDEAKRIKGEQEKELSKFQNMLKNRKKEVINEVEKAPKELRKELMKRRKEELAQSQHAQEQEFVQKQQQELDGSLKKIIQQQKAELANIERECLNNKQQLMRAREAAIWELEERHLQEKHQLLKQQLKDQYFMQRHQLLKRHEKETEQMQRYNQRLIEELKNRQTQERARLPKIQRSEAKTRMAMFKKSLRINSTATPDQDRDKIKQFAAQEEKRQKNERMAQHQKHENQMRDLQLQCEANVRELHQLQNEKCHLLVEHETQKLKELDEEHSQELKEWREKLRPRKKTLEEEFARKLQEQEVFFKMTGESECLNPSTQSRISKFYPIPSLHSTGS
In assay [7] the test system is Receptor-type tyrosine-protein kinase FLT3 (Homo sapiens), P36888 [D835H]. As to the kind of experiment: Inhibition of FLT3 D835H mutant (unknown origin) at 1 uM by Ambit Kinomescan binding assay relative to control; values are per cent of control.
Assay [8] concerns the target T1, Serine/threonine-protein kinase 3 (Homo sapiens). Briefly: Inhibition of MST2 Lys1 labeling site in human A-375 cells at 0.5 uM by KiNativ Profiling analysis relative to control. The format is cell-based.
In assay [9] the target is Serine/threonine-protein kinase MRCK alpha (Homo sapiens) (UniProt Q5VT25). As to the kind of experiment: Inhibition of MRCKA (unknown origin) at 1 uM by Ambit Kinomescan binding assay relative to control.
In assay [10] the target is Leucine-rich repeat serine/threonine-protein kinase 2 (Homo sapiens) (UniProt Q5S007). Briefly: Inhibition of LRRK2 (unknown origin) at 1 uM by Ambit Kinomescan binding assay relative to control; values are per cent of control.
Assay [11] has as its target Tyrosine-protein kinase receptor Tie-1 (Homo sapiens) (UniProt P35590). Briefly: Inhibition of TIE1 (unknown origin) at 10 uM by Ambit Kinomescan binding assay relative to control; values are per cent of control.
Assay [12] has as its target Serine/threonine-protein kinase/endoribonuclease IRE1 (Homo sapiens) (UniProt O75460). Briefly: Inhibition of IRE1 Lys2 labeling site in human A-375 cells at 5 uM by KiNativ Profiling analysis relative to control. The format is cell-based.
The target of assay [13] is SRSF protein kinase 1 (Homo sapiens) (UniProt Q96SB4). Briefly: Inhibition of SRPK1 (unknown origin) at 10 uM by Ambit Kinomescan binding assay.
Chain of SRSF protein kinase 1 (Homo sapiens) (Q96SB4 whole entry, the tested form may be a part): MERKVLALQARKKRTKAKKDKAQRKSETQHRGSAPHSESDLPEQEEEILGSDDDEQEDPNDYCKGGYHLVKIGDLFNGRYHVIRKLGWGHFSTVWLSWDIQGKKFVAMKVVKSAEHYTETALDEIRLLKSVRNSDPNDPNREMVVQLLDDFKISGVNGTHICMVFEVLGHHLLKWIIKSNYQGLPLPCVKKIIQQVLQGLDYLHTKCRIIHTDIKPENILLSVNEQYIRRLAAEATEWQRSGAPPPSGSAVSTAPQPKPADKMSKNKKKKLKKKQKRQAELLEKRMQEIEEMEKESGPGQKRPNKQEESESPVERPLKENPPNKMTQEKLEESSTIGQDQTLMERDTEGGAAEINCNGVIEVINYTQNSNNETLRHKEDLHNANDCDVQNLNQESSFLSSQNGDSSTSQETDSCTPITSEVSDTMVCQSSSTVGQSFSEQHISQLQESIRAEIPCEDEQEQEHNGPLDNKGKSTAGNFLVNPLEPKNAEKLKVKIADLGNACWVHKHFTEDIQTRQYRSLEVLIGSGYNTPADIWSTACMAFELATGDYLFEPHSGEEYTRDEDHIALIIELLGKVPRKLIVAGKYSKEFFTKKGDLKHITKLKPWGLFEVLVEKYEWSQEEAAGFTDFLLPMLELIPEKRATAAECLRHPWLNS
For assay [14], the target named is Ribosomal protein S6 kinase delta-1 (Homo sapiens) (UniProt Q96S38). As to the kind of experiment: Inhibition of RPS6KC1 domain 1 ATP labeling site in human Huh-7 cells at 10 uM by KiNativ Profiling analysis relative to control. The format is cell-based.
Chain of Ribosomal protein S6 kinase delta-1 (Homo sapiens) (Q96S38 whole entry, the tested form may be a part): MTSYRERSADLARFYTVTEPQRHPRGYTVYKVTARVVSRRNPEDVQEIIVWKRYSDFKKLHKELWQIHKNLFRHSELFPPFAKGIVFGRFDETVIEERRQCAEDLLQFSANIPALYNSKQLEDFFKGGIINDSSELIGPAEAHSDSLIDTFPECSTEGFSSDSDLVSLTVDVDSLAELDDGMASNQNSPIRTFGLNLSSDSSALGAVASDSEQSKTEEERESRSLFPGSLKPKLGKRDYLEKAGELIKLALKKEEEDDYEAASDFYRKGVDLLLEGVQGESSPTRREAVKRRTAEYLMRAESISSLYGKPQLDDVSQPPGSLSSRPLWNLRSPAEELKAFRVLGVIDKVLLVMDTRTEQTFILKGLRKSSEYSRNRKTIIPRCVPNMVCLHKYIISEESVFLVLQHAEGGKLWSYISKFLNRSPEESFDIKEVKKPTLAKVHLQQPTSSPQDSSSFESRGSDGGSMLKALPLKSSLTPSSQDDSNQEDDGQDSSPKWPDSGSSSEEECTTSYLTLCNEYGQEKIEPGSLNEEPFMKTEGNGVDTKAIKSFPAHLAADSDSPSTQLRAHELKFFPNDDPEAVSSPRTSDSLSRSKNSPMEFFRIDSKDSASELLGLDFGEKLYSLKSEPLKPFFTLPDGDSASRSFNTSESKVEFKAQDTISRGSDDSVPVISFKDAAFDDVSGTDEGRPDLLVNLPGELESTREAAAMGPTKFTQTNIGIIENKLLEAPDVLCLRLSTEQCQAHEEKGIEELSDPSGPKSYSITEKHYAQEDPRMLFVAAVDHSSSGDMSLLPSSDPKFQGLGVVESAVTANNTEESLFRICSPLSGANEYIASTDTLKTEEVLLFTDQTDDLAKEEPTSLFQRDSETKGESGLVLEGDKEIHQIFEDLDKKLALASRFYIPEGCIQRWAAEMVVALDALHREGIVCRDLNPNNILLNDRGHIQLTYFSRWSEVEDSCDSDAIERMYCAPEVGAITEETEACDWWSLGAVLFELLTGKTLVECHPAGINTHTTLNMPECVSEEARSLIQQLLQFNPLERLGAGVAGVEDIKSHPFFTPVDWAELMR
The target in assay [15] is Serine/threonine-protein kinase A-Raf (Homo sapiens) (UniProt P10398). Briefly: Inhibition of ARAF Lys2 labeling site in human A-375 cells at 0.5 uM by KiNativ Profiling analysis relative to control. It is filed as cell-based.
Chain of Serine/threonine-protein kinase A-Raf (Homo sapiens) (P10398 whole entry): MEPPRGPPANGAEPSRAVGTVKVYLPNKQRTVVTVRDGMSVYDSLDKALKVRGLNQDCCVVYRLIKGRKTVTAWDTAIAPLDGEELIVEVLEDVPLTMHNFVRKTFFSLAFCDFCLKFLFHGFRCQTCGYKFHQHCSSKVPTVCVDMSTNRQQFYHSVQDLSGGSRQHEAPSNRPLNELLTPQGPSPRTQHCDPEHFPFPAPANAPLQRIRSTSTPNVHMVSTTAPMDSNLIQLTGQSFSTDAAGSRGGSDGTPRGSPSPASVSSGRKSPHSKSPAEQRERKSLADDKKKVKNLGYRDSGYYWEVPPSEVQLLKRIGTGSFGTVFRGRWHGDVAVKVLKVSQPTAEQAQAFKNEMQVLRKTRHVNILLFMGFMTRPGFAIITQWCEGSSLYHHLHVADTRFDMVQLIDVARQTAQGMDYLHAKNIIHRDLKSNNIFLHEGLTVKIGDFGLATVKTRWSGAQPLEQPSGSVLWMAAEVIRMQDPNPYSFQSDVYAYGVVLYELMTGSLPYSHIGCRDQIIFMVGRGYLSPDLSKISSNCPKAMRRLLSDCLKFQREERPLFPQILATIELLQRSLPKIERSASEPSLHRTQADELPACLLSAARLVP
The target in assay [16] is c-Jun N-terminal kinase, JNK (Homo sapiens) (UniProt P45983+P53779+P45984). As to the kind of experiment: Inhibition of JNK1/2/3 K2 labeling site in human Huh-7 cells at 10 uM by KiNativ Profiling analysis relative to control. It is filed as cell-based.
Assay [17] addresses Serine/threonine-protein kinase 38-like (Homo sapiens) (UniProt Q9Y2H1). As to the kind of experiment: Inhibition of NDR2 ACT labeling site in human A-375 cells at 0.5 uM by KiNativ Profiling analysis relative to control. It is filed as cell-based.
For assay [18], the target named is Mast/stem cell growth factor receptor Kit (Homo sapiens) (UniProt P10721). As to the kind of experiment: Inhibition of KIT (unknown origin) at 10 uM by Ambit Kinomescan binding assay relative to control.
The target of assay [19] is Discoidin domain-containing receptor 2 (Homo sapiens) (UniProt Q16832). As to the kind of experiment: Inhibition of DDR2 (unknown origin) at 10 uM by Ambit Kinomescan binding assay relative to control; values are per cent of control.
Assay [20] concerns the target T2, Phosphatidylinositol 5-phosphate 4-kinase type-2 gamma (Homo sapiens) (UniProt Q8TBX8).
T2 sequence (whole entry): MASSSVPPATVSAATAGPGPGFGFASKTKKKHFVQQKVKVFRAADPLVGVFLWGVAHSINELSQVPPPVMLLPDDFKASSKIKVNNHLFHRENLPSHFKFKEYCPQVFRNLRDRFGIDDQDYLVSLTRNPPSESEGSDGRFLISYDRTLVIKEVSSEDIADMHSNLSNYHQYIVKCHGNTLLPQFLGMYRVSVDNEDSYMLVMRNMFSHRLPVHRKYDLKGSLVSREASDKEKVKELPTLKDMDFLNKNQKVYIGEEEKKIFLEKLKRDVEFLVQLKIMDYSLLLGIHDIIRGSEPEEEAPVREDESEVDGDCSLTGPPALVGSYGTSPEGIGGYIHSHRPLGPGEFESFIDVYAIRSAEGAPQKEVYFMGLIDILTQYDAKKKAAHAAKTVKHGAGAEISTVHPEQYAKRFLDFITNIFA
As to the kind of experiment: Inhibition of PIP5K2C ATP labeling site harbouring VKELPTLKDMDFLNK in human Huh-7 cells at 1 uM by KiNativ Profiling analysis relative to control. It is filed as cell-based.

Assay [21] has as its target Maternal embryonic leucine zipper kinase (Homo sapiens) (UniProt Q14680). Briefly: Inhibition of MELK Lys2 labeling site in human A-375 cells at 0.05 uM by KiNativ Profiling analysis relative to control. The format is cell-based.

One may read the inhibition as the drop in the measured response relative to a control, in per cent. A word on the residual activity: it is what remains of the control signal, in per cent. Low values mean little activity left, high ones much activity left.

The source made the active and inactive calls. No cut-off for these calls is given here.

Chain of Serine/threonine-protein kinase/endoribonuclease IRE1 (Homo sapiens) (O75460 19-977 limits assumed): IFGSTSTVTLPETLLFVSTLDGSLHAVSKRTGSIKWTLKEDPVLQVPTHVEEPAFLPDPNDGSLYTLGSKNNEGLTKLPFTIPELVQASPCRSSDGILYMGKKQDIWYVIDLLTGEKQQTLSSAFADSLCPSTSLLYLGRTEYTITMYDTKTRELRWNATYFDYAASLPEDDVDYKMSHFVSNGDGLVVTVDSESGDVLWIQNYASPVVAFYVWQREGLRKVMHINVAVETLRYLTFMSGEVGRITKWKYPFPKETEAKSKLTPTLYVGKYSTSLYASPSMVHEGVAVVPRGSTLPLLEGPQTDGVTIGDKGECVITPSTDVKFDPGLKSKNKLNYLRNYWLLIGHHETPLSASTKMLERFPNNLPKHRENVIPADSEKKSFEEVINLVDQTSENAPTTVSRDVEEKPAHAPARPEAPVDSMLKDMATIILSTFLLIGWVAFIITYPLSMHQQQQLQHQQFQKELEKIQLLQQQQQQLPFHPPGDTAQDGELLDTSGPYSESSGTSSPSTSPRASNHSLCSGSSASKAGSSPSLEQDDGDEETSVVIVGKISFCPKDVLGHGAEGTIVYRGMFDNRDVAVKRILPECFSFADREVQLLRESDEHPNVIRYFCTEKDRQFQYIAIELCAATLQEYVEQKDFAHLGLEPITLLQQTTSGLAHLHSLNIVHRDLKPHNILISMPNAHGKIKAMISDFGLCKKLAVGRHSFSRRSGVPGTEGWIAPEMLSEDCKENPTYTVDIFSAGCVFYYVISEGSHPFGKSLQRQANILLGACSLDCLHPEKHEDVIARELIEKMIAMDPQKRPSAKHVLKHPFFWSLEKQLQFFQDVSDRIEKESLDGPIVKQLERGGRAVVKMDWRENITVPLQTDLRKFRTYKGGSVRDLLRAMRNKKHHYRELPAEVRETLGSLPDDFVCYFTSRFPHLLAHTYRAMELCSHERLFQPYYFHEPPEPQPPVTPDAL
Chain of Serine/threonine-protein kinase 26 (Homo sapiens) (Q9P289 2-416 limits assumed): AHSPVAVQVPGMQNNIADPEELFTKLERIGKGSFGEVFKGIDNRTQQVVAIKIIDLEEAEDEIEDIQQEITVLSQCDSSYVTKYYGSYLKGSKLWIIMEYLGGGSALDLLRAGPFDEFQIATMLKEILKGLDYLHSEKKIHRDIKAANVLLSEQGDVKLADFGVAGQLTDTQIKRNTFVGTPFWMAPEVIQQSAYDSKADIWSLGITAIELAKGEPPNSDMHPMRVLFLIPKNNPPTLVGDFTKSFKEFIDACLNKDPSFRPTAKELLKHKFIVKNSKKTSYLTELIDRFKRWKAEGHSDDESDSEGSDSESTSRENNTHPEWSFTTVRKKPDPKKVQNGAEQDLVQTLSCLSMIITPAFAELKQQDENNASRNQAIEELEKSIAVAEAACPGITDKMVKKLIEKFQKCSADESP

Turning to `CNc1cc(Oc2cc(C(=O)Nc3cc(N4CCN(C)CC4)cc(C(F)(F)F)c3)ccc2C)ncn1`, the inhibition in [1] stood at 15%; in assay [2] it was 5.3%; in assay [3] it was 41.9%; in [4], 10.8%.

Regarding `CCN1CCN(Cc2ccc(NC(=O)c3ccc(C)c(/C=C/c4cnc5[nH]ccc5c4OC)c3)cc2C(F)(F)F)CC1`, the inhibition was 15% in assay [5], 13% in assay [6], 8.2% in assay [8] and 79% in [9]. Also, the residual activity came to 2.6% in assay [7] and 53% in assay [10].

Turning to `CCN1CCN(Cc2ccc(NC(=O)c3ccc(C)c(Oc4ccnc5[nH]ccc45)c3)cc2C(F)(F)F)CC1`, the residual activity in assay [11] stood at 0.95%. Further, the inhibition in assay [12] was -5.7%; in assay [14], 15.4%; in assay [15], 18.4%; in [16], 60.1%; in assay [17], -4.5%; in [18], 0%. Besides, the inhibition is 2.9% in assay [20] and 4.1% in assay [21]. The inhibition result in [13] is “inactive”. The same compound gave a percent of control in assay [19] of 5.1%.

(Values after ChEMBL document CHEMBL5696442, “Discovery of type II inhibitors of TGFβ-activated kinase 1 (TAK1) and mitogen-activated protein kinase kinase kinase kinase 2 (MAP4K2)” (J Med Chem, 2015).)
